Laboratory results from PMC12811658, “Design, Synthesis, and Structural Evolution of Pseudo‐Natural Product IDO1 Inhibitors and Degraders” (Angewandte Chemie (International Ed. in English), 2025).

Assays:
[1] = Pharmacokinetics of iDeg-6; assay type: in vivo, male C57Bl/6 mice; conditions: male, C57Bl/6, mouse, plasma
Experimental: In vivo pharmacology characterization was carried out at Pharmacelsus GmbH, Saarbrücken, Germany, using male C57Bl/6 mice. Food and water was provided ad libitum before and during each study. All experimental procedures were approved by and conducted in accordance with the regulations of the local Animal Welfare Authorities. Plasma samples were analysed by liquid chromatography tandem-mass spectrometry using a generic method. Pharmacokinetic parameters were calculated by non-compartmental analysis. […] Up to 120 mg/kg PO and 30 mg/kg IP no clinical signs were observed. […] Due to the larger plasma exposure of iDeg-6 the IP route was selected for efficacy studies.

C57Bl/6 mice = experiment: Tolerability (dose escalation PO and IP); assay type: in vivo, male C57Bl/6 mice; conditions: for dose up to which no clinical signs were observed: dose escalation over 3-5 days
SKOV-3 tumor = experiment: SKOV-3 tumor-bearing mouse model; assay type: in vivo, NSG immunodeficient mice; conditions: 30 mg kg−1 IP twice daily
Experimental: Incubation at 37 °C for 3 h. Representative data for n = 3. c) Time‐course of heme displacement from IDO1 detected by the absorbance at the Soret peak (404 nm) as a function of time. […] All curves were fit using a one‐site model with N = 1 and defined IDO1 concentration. Left plots show baseline corrected data, while right plots show integrated binding isotherms versus iDegs/IDO1 ratio. IDO1 protein (125 µM) was titrated into the stirred sample cell containing iDegs (25 µM, except for iDeg‐8 at 50 µM). Representative data for n = 3, except for iDeg‐9 (n = 2). g)–i) In vivo activity of iDeg‐6. NSG immunodeficient mice were injected with SKOV‐3 cells. Mice were treated with 18 intraperitoneal injections of iDeg‐6 (30 mg kg^−1) or vehicle. The pharmacological treatment was twice daily. Tumor volume was determined weekly by digital caliper. g) SKOV‐3 tumor growth curves in iDeg‐6‐treated mice (n = 12, green lines) or vehicle‐treated mice (n = 13, gray lines). Statistical analysis was performed by two‐way ANOVA: ****p < 0.001. h) Body weight changes during treatment window (mean values ± range). i) Survival data are shown by Kaplan‐Meier survival analysis. Mantel–Haenszel statistical analysis: p < 0.0001).
The limited clinical efficacy of IDO1 inhibitors is likely due in part to its non‐enzymatic functions that are not targeted by catalytic inhibition.^[ [32], [33], [34], [35], [36], [37], [38] ^] […] SKOV‐3 cells were subsequently engrafted into NSG immunodeficient mice to establish a SKOV‐3 tumor‐bearing model (Figure S11a). Mice were treated with iDeg‐6 at a dose of 30 mg kg^−1, administered twice daily for 18 days.
NSG female mice (NOD.Cg-PrkdcSCIDIl2rgtm1Wjl/SzJ) were purchased from Charles River (Calco, Italia) with 10 weeks age. […] Tumor volume was determined weekly by digital caliper from 10 days after tumor challenging to the endpoint of the experiment (day 80). […] All animal experiments were under the Amsterdam Protocol on animal protection and welfare: mice were monitored daily and euthanized when displaying excessive discomfort.

C#Cc1ccc(NC(=O)OC[C@]23CN(S(=O)(=O)c4ccc(C(C)(C)C)cc4C)C[C@H]2C[C@H]2C[C@@H]3C2(C)C)cc1 [98 (iDeg-6), ((3aS,4R,6R,7aS)-2-((4-(tert-butyl)-2-methylphenyl)sulfonyl)-5,5-dimethyloctahydro-3aH-4,6-methanoisoindol-3a-yl)methyl (4-ethynylphenyl)carbamate]
AUC(0-inf) ([1]; 1 mg/kg IV): 414 ng·h/mL
C0 ([1]; 1 mg/kg IV): 1120 ng/mL
clearance ([1]; 1 mg/kg IV): 40.3 mL/min/kg
half-life ([1]; 1 mg/kg IV): 1.1 h
Vd ([1]; 1 mg/kg IV, read-out: Vz): 3.82 L/kg
AUC(0-inf) ([1]; 30 mg/kg IP): 7040 ng·h/mL
Cmax ([1]; 30 mg/kg IP): 872 ng/mL
bioavailability ([1]; 30 mg/kg IP): 57%
half-life ([1]; 30 mg/kg IP): 4 h
clinical signs (in words) (C57Bl/6 mice; 60 mg/kg IP, individual animals, shortly after administration): piloerection, subdued behavior
dose up to which no clinical signs were observed (C57Bl/6 mice; IP): ≤ 30 mg/kg
dose up to which no clinical signs were observed (C57Bl/6 mice; PO): Up to 120 mg/kg
tolerability (in words) (C57Bl/6 mice; up to 30 mg kg−1 IP, no clinical signs): well tolerated
body weight (in words) (SKOV-3 tumor): no significantly negative impact on body weight
overall survival (in words) (SKOV-3 tumor; Kaplan-Meier): significantly improved the overall survival time
tumor growth (in words) (SKOV-3 tumor; p < 0.001 vs control): significant inhibition of tumor growth
